Drawing on PubChem BioAssay (NCI), this text covers TGI for 9 molecules.

Each structure is given as a SMILES string.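 Exposure lasted 48 hours, with cells grown in 96-well plates and compounds tested at five concentrations. TGI is the concentration that stops growth completely.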

Among the test systems are HOP-92 NSCLC; IGROV1 ovarian; HCT-116 colon; SNB-19 CNS; HCT-15 colon; SK-OV-3 ovarian; UACC-257 melanoma; NCI-H226 lung; OVCAR-8 ovarian; MALME-3M melanoma; RPMI-8226 leukemia; HOP-62 NSCLC; SK-MEL-5 melanoma; DU-145 prostate; MCF7 breast; MDA-MB-435; MDA-N; HS 578T breast; T-47D breast; BT-549 breast.
Common to all, as to assay: inhibition of tumour cell growth, NCI panel, 48 h

Take `Cc1c(C(=O)/C=C/c2c(Cl)cccc2Cl)c(=O)n(-c2ccccc2)n1C`: the TGI with HOP-92 NSCLC is 74.6 µM; with IGROV1 ovarian, above 100 µM; with HCT-116 colon, above 100 µM; in the assay on SNB-19 CNS it was above 100 µM; with HCT-15 colon it was above 100 µM; with SK-OV-3 ovarian, above 100 µM. Moreover, the TGI is above 100 µM in the assay with UACC-257 melanoma, 39.1 µM with NCI-H226 lung, above 100 µM in the assay on OVCAR-8 ovarian and above 100 µM in the assay with MALME-3M melanoma.

For `O=C(c1nc2ccc(Cl)cc2[nH]c1=O)C(O)c1ccc2c(c1)OCO2` (stereo not drawn), the TGI in the assay on HOP-92 NSCLC, with IGROV1 ovarian, in the assay on RPMI-8226 leukemia, with SK-OV-3 ovarian, with HOP-62 NSCLC and in the assay with UACC-257 melanoma was above 100 µM in each case. In addition, the TGI in the assay with NCI-H226 lung, in the assay with OVCAR-8 ovarian and in the assay with MALME-3M melanoma was above 100 µM in each case.

Consider `CCCCCCCCCCCCCCCCCC(=O)OCC(C[As](=O)(O)O)OC(=O)CCCCCCCCCCCCCCCCC` (stereo not drawn), for which the TGI was 40.4 µM in the assay on HOP-92 NSCLC; above 100 µM with IGROV1 ovarian; above 100 µM in the assay on HCT-116 colon; 77.4 µM in the assay on SNB-19 CNS; above 100 µM in the assay with HCT-15 colon; 80.8 µM with RPMI-8226 leukemia. Further, the TGI in the assay with SK-OV-3 ovarian was 50 µM; in the assay with HOP-62 NSCLC, 85.2 µM; with UACC-257 melanoma it was above 100 µM; in the assay on SK-MEL-5 melanoma, above 100 µM; with NCI-H226 lung, 70.4 µM; with OVCAR-8 ovarian, above 100 µM. Moreover, in the assay on MALME-3M melanoma, the TGI is above 100 µM.

Consider `CC(=O)OC1CC2C(C)(C)C(=O)C=C[C@]2(C)C2CCC3(C)C(c4ccoc4)[C@@H](O)[C@H]4O[C@]43[C@]12C` (stereo partly drawn), for which the TGI with HOP-92 NSCLC came to 39.9 µM; with IGROV1 ovarian, 46.2 µM; with HCT-116 colon it was 51.9 µM; in the assay on SNB-19 CNS, 59.6 µM; in the assay with HCT-15 colon it was 31.2 µM; with RPMI-8226 leukemia, 67.1 µM. Further, the TGI in the assay with SK-OV-3 ovarian is 42.5 µM; with HOP-62 NSCLC, 42.6 µM; in the assay on UACC-257 melanoma it was 41.6 µM; in the assay with SK-MEL-5 melanoma, 34.2 µM; in the assay on NCI-H226 lung, 33.5 µM; with OVCAR-8 ovarian, 36.2 µM. Also, the TGI in the assay with MALME-3M melanoma is 51.7 µM.

Turning to `CC(C)n1c(=O)[nH]n(-c2ccccc2)c1=O`, the TGI in the assay with HOP-92 NSCLC, in the assay with IGROV1 ovarian, with DU-145 prostate, in the assay with HCT-116 colon, in the assay with SNB-19 CNS and in the assay with HCT-15 colon was above 100 µM each time. For the same molecule, the TGI in the assay on RPMI-8226 leukemia, in the assay on SK-OV-3 ovarian, in the assay on HOP-62 NSCLC, in the assay on UACC-257 melanoma, in the assay on MCF7 breast and in the assay on MDA-MB-435 was above 100 µM in each case. The TGI in the assay on SK-MEL-5 melanoma, in the assay on MDA-N, in the assay with NCI-H226 lung, in the assay with OVCAR-8 ovarian, in the assay on MALME-3M melanoma and with HS 578T breast was above 100 µM throughout.

As for `O=NN/C(=C1\Nc2ccc([N+](=O)[O-])cc2NC1=O)C(O)c1ccc([N+](=O)[O-])cc1` (stereo not drawn), the TGI in the assay with HOP-92 NSCLC, in the assay on IGROV1 ovarian, in the assay on HCT-116 colon, with SNB-19 CNS, with HCT-15 colon and with RPMI-8226 leukemia was above 100 µM throughout. The TGI with SK-OV-3 ovarian, with HOP-62 NSCLC, with UACC-257 melanoma, in the assay with SK-MEL-5 melanoma, in the assay on NCI-H226 lung and in the assay on OVCAR-8 ovarian was above 100 µM throughout. For the same molecule, the TGI in the assay with MALME-3M melanoma was above 100 µM.

Regarding `CC1=CC(=O)c2c(C=O)c(O)c(O)c(C(C)C)c2C1=O`, the TGI in the assay on HOP-92 NSCLC was 45.5 µM; with IGROV1 ovarian, 63.9 µM; in the assay with HCT-116 colon, 38.5 µM; in the assay with SNB-19 CNS it was above 100 µM; in the assay on HCT-15 colon it was above 100 µM; with RPMI-8226 leukemia, above 62.8 µM. Further, the TGI with SK-OV-3 ovarian is above 100 µM; in the assay with HOP-62 NSCLC, above 100 µM; with SK-MEL-5 melanoma it was 65 µM; in the assay with NCI-H226 lung it was 54.8 µM; in the assay with OVCAR-8 ovarian, above 56.5 µM; in the assay with MALME-3M melanoma, 68.2 µM.

For the molecule `CCOC(=O)c1c(-c2ccccc2)nc2c(OC)nccn12`, the TGI with IGROV1 ovarian, in the assay on DU-145 prostate, in the assay with HCT-116 colon, with SNB-19 CNS, with HCT-15 colon and with RPMI-8226 leukemia was above 100 µM each time. Moreover, the TGI in the assay on SK-OV-3 ovarian, in the assay with HOP-62 NSCLC, in the assay with UACC-257 melanoma, in the assay on MCF7 breast, with MDA-MB-435 and with SK-MEL-5 melanoma was above 100 µM in each case. Further, the TGI in the assay on T-47D breast, in the assay with NCI-H226 lung, with OVCAR-8 ovarian, in the assay with BT-549 breast, in the assay on MALME-3M melanoma and with HS 578T breast was above 100 µM in each case.

`CCOC1(OCC)N=C(N)C2(C#N)C3(C(=O)N(C(C)C)N=C3C)C12C#N` (stereo not drawn): the TGI in the assay with HOP-92 NSCLC, in the assay on IGROV1 ovarian, in the assay on DU-145 prostate, in the assay with HCT-116 colon, in the assay with SNB-19 CNS and in the assay on HCT-15 colon was above 100 µM throughout. In addition, the TGI in the assay on RPMI-8226 leukemia, with SK-OV-3 ovarian, in the assay with HOP-62 NSCLC, in the assay on UACC-257 melanoma, in the assay on MCF7 breast and in the assay on MDA-MB-435 was above 100 µM throughout. Besides, the TGI in the assay on T-47D breast, in the assay on NCI-H226 lung, with OVCAR-8 ovarian, in the assay on BT-549 breast and in the assay with MALME-3M melanoma was above 100 µM throughout.
